Literature values in US20130338095A1, “Chemosensory Receptor Ligand-Based Therapies” (ELCELYX THERAPEUTICS, INC., priority 2010, published 2013).

Experiments:
[1] = patients with jejunostomy
[2] = bitter phytonutrients in common plant foods
GLP-1 = details: rats

| Molecule | Taste quality [2] | other results |
| --- | --- | --- |
| GLP-2: gut hormone, glucagon-like peptide 2 (HADGSFSDEMNTILDNLAARDFINWLIQTKITD; Glucagon-like peptide 2; UniProt P01275 146-178, looked up) |  | intestinal absorption of energy [1]: improve; intestinal wet weight absorption [1]: improve |
| O=C(O[C@@H]1Cc2c(O)cc(O)cc2O[C@@H]1c1ccc(O)c(O)c1)c1cc(O)c(O)c(O)c1 [Epicatechin gallate] | Bitter and astringent |  |
| COc1ccc(-c2cc(=O)c3c(OC)c(OC)c(OC)c(OC)c3o2)cc1OC [Nobiletin] | Bitter |  |
| C[S+]([O-])CCCN=C=S (centres unmarked) [3-Methyl-sulfinylpropyl isothiocyanate] | Acrid mustard oils |  |
| C[C@@H]1O[C@@H](O[C@H]2[C@H](Oc3cc(O)c4c(c3)O[C@H](c3ccc(O)cc3)CC4=O)O[C@H](CO)[C@@H](O)[C@@H]2O)[C@H](O)[C@H](O)[C@H]1O [Naringin] | Bitter |  |
| OCCN1C[C@H](O)[C@@H](O)[C@H](O)[C@H]1CO [miglitol] |  | increase in GLP-1 with administration of a DPP-IV inhibitor (GLP-1): synergistic |
| CC1(C)O[C@H]2CC(=O)OC[C@]23[C@H]2CC[C@@]4(C)[C@H](c5ccoc5)OC(=O)[C@H]5O[C@]54[C@]2(C)C(=O)C[C@@H]13 [Limonin] | Bitter |  |
